Data published in patent US6573219B1, “Substituted heterocyclyl-2H-chromenes” (Bayer Aktiengesellschaft, priority 1999, dated 2003).

Experiments:
weeds [1] = test: Pre-emergence test (Example A), weeds; assay type: in vivo; conditions: soil sprayed 24 hours after sowing, rated after three weeks
Description: (§1) Solvent: 5 parts by weight of acetone
(§2) Emulsifier: 1 part by weight of alkylaryl polyglycol ether
Seeds of the test plants are sown in normal soil.
(§3) After three weeks, the degree of damage to the plants is rated in % damage in comparison to the development of the untreated control.

[2] = LogP determination by HPLC (EEC directive 79/831 Annex V.A8, reversed-phase C18); assay type: physicochemical; conditions: reversed-phase C18 HPLC column, mobile phase range not labelled
Procedure: The LogP values given in Table 1 were determined in accordance with EEC directive 79/831 Annex V.A8 by HPLC (High Performance Liquid Chromatography) using a reversed-phase column (C 18). Temperature: 43° C.
(a) Mobile phases for the determination in the acidic range: 0.1% aqueous phosphoric acid, acetonitrile; linear gradient from 10% acetonitrile to 90% acetonitrile—the corresponding data in Table 1 are labelled^a).
(b) Mobile phases for the determination in the neutral range, 0.01 molar aqueous phosphate buffer solution, acetonitrile; linear gradient from 10% acetonitrile to 90% acetonitrile—the corresponding data in Table 1 are labelled b
Calibration was carried out using unbranched alkan-2-ones (with from 3 to 16 carbon atoms) whose logP values are known (determination of the logP values by the retention times using linear interpolation between two successive alkanones).

weeds [3] = test: Post-emergence test (Example B), weeds; assay type: in vivo; conditions: test plants of 5-15 cm sprayed, rated after three weeks
Description: as §1, §2, §3

For `CC1C=Cc2c(c(C#N)cc(F)c2-n2c(=O)cc(C(F)(F)F)n(N)c2=O)O1` (stereo not shown) [Example 1], the “activity against weeds (degree of damage)” value (weeds [1]) was “very strong activity”.

Compound `COc1cc(N2C(=O)c3ccccc3C2=O)c(F)cc1C#N` [N-(2-fluoro-4-cyano-5-methoxy-phenyl)-phthalimide] has a melting point of 245 °C and a chromatographic logP [2] of 2.51.

In the case of `CC1C=Cc2c(c(C#N)cc(F)c2-n2nc(C(F)(F)F)n(C)c2=S)O1` (stereo not shown) [Example 2], the “activity against weeds (degree of damage)” value (weeds [3]) is reported as “very strong activity”, the melting point is reported as 144 °C and the chromatographic logP [2] is reported as 3.37.

Work on `N#Cc1cc(F)c(N2C(=O)c3ccccc3C2=O)cc1O` [N-(2-fluoro-4-cyano-5-hydroxy-phenyl)-phthalimide] yielded a melting point of 247 °C and a chromatographic logP [2] of 2.04.

`C#CC(C)Oc1cc(N2C(=O)c3ccccc3C2=O)c(F)cc1C#N` (stereo not shown) [Example (II-2), N-[2-fluoro-4-cyano-5-(but-1-in-3-yl)-oxyphenyl]-phthalimide] showed a melting point of 170 °C and a chromatographic logP [2] of 2.92.
